Measured values as given in patent US11999715B2, “ASK1 inhibiting agents” (BIOGEN MA INC., priority 2018, dated 2024).

Key:
[1] = target: T1, ASK1/MAP3K5 (Homo sapiens, UniProt Q99683); test: ASK1/MAP3K5 kinase assay by Reaction Biology Corp. (headed ASK1 TR-FRET Assay); assay type: biochemical; settings: 20 μM myelin basic protein, 10 μM ATP
T1 sequence (Q99683 1-1374): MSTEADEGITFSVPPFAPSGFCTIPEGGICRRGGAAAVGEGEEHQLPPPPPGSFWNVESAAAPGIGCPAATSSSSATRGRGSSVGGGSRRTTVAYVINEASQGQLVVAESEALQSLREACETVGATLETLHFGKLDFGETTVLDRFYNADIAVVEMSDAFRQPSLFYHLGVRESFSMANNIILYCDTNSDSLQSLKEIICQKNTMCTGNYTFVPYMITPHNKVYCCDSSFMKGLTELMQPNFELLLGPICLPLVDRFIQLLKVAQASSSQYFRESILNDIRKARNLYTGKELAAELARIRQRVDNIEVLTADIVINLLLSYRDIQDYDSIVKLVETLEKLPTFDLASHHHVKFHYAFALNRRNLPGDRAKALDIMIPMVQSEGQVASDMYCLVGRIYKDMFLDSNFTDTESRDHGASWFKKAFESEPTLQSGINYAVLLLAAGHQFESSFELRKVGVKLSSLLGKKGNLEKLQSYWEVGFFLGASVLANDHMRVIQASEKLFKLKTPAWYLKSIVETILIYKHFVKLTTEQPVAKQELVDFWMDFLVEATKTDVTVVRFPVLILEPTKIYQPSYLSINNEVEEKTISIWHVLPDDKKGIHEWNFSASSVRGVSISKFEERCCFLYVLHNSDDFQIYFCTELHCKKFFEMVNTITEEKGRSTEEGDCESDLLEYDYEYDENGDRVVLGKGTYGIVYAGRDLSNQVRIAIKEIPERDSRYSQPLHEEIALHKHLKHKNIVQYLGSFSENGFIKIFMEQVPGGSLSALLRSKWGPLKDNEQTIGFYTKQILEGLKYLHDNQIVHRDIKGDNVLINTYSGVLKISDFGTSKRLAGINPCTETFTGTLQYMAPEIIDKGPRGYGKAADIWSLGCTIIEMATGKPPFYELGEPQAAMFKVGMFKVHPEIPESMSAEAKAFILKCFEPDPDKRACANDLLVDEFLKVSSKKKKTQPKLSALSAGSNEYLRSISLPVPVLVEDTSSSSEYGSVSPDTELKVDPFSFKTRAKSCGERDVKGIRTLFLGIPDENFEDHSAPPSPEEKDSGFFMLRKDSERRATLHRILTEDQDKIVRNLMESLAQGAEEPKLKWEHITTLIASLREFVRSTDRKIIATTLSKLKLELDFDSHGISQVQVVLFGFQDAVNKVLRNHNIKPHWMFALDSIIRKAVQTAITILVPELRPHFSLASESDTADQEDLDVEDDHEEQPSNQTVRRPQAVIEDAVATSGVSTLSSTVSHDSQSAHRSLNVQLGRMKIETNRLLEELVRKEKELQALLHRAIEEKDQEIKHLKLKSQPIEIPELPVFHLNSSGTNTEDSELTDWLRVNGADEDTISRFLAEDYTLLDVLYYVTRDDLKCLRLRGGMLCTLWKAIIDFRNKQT
Procedure: Example 111: Brief Description of ASK1 TR-FRET Assay The protein kinase inhibitory activity of the compounds described herein were tested using the ASK1/MAP3K5 assay by Reaction Biology Corp. (Malvern, PA). The assay procedure follows (and is also available on the Reaction Biology Corp. website). Base Reaction Buffer: 20 mM Hepes (pH 7.5), 10 mM MgCl2, 1 mM EGTA, 0.02% Brij35, 0.02 mg/mL BSA, 0.1 mM Na3VO4, 2 mM DTT, 1% DMSO; Substrate: 20 μM of myelin basic protein (MBP) and 10 μM ATP; Protein kinase: ASK1/MAP3K5. Reaction Procedure: • 1. Prepare indicated substrate in freshly prepared Base Reaction Buffer. • 2. Deliver any required cofactors to the substrate solution. • 3. Deliver indicated kinase into the substrate solution and gently mix. • 4. Deliver compounds in DMSO into the kinase reaction mixture by Acoustic; technology (Echo550; nanoliter range), incubate for 20 minutes at room temperature. • 5. Deliver ^33P-ATP (specific activity 10 μCi/μL) into the reaction mixture to initiate the reaction. • 6. Incubate kinase reaction for 2 hours at room temperature. • 7. Reactions are spotted onto P81 ion exchange paper. • 8. Detect kinase activity by filter-binding method.

[2] = target: T2, ASK1 T838 auto phosphorylation (Homo sapiens, UniProt Q99683); test: ASK1 (AUTO PHOS T838) assay, MSD format, in HEK-293T cells transfected with ASK1-V5; assay type: cell-based; settings: ASK1 T838 auto phosphorylation in HEK-293T cells, 1 hr compound incubation; class symbols
T2 sequence (Q99683 1-1374): T1 sequence (Q99683 1-1374)
Procedure: Example 112: Brief Description of ASK1(AUTO PHOS T838) Assay ASK1 T838 auto phosphorylation was measured in HEK-293T cells using MSD assay format. HEK 293T cells were seeded in 15 cm plates at a density of 18 million cells and 20 mL DMEM with 10% FBS, Pen/Strep media. The plates were incubated at 37° C. overnight. Media on plates was changed to OPTI-MEM, serum free media and cells were transfected with 9 μg of ASK1-V5 tagged full length plasmid using Lipofectamine 2000 (Invitrogen) and the plates were incubated at 37° C. overnight. Cells were trypsinized, counted on Nexcellometer and plated into 96 well tissue culture plates with 100,000 cells/well and 200 μL media. Cells were incubated for 4 hr at 37° C. then ASK1 compounds were added using a HP 300e. Compounds were tested at 20 μM with 3 fold, 10 point dilution points then incubated for 1 hr at 37° C. A lysis buffer (Cell Signaling) was prepared with protease and phosphatase inhibitor and maintained at 4° C. until use. Media from cells was discarded and 120 μL of cold lysis buffer was added to the cells, the plate was shaken 4° C. for 1 hr. Lysate was mixed using Apricot liquid handler; aspirating up and down 16 times at high speed using 50 μL volume. […] Plates were then incubated on a plate shaker overnight at 4° C. Plates were washed 3× with MSD wash buffer and 50 μL of rabbit anti-pASK1 T838 antibody was added to the wells and incubated for 2 hr at room temperature on a plate shaker. Plates were then washed and 50 μL of goat anti-rabbit sulfa-tag (1:500 dilution) was added to wells, and incubated for 1 hr at room temperature on a plate shaker. […] Plates were immediately read on a MSD Instrument Reader where chemoluminescence signal was measured. Data was analyzed using Graph Pad or Genedata, the data was normalized and plotted, % activity versus log of compound concentration. The IC50 values were obtained from a 4 parameter fit. The compounds described herein were tested for in the above cell-based assay.

IC50 ([1]; class symbols) [µM] | IC50 [2] [µM] | IC50 ([1]; class given in words) [µM] | SMILES
≤ 0.1 | ≤ 1 |  | COc1nn(CC(C)C)cc1C(=O)Nc1cccc(-c2nncn2C(C)C(F)(F)F)n1 (stereo not shown) [Example 43, 1-Isobutyl-3-methoxy-N-(6-(4-(1,1,1-trifluoropropan-2-yl)-4H-1,2,4-triazol-3-yl)pyridin-2-yl)-1H-pyrazole-4-carboxamide]
≤ 0.1 | ≤ 1 |  | COc1nn(Cc2ccccn2)cc1C(=O)Nc1cccc(-c2nncn2C(C)C)n1 [Example 44, N-(6-(4-Isopropyl-4H-1,2,4-triazol-3-yl)pyridin-2-yl)-3-methoxy-1-(pyridin-2-ylmethyl)-1H-pyrazole-4-carboxamide]
≤ 0.1 | ≤ 1 |  | COc1nn(CCN(C)C)cc1C(=O)Nc1cccc(-c2nncn2C(C)C)n1 [Example 45, 1-(2-(Dimethylamino)ethyl)-N-(6-(4-isopropyl-4H-1,2,4-triazol-3-yl)pyridin-2-yl)-3-methoxy-1H-pyrazole-4-carboxamide]
≤ 0.1 | ≤ 1 |  | COc1nn(CCN2CCOCC2)cc1C(=O)Nc1cccc(-c2nncn2C(C)C)n1 [Example 46, N-(6-(4-Isopropyl-4H-1,2,4-triazol-3-yl)pyridin-2-yl)-3-methoxy-1-(2-morpholinoethyl)-1H-pyrazole-4-carboxamide]
≤ 0.1 | ≤ 1 |  | COc1nn(CC2CC2)cc1C(=O)Nc1cccc(-c2nncn2[C@@H](C)C(F)(F)F)n1 [Example 48, (S)-1-(Cyclopropylmethyl)-3-methoxy-N-(6-(4-(1,1,1-trifluoropropan-2-yl)-4H-1,2,4-triazol-3-yl)pyridin-2-yl)-1H-pyrazole-4-carboxamide]
 | > 10 | ≥ 10 | COc1nn(C)cc1C(=O)Nc1cccc(-c2nncn2C2(C)COC2)n1 [Example 49, 3-Methoxy-1-methyl-N-(6-(4-(3-methyloxetan-3-yl)-4H-1,2,4-triazol-3-yl)pyridin-2-yl)-1H-pyrazole-4-carboxamide]
≤ 0.1 | ≤ 1 |  | CC(C)n1cnnc1-c1cccc(NC(=O)c2cn(CC3CC3)nc2C(F)F)n1 [Example 50, 1-(Cyclopropylmethyl)-3-(difluoromethyl)-N-(6-(4-isopropyl-4H-1,2,4-triazol-3-yl)pyridin-2-yl)-1H-pyrazole-4-carboxamide]
≤ 0.1 | ≤ 1 |  | COCCn1cc(C(=O)Nc2cccc(-c3nncn3[C@@H](C)C(F)(F)F)n2)c(C(F)F)n1 [Example 51, (S)-3-(Difluoromethyl)-1-(2-methoxyethyl)-N-(6-(4-(1,1,1-trifluoropropan-2-yl)-4H-1,2,4-triazol-3-yl)pyridin-2-yl)-1H-pyrazole-4-carboxamide]
≤ 0.1 | ≤ 1 |  | COCCn1cc(C(=O)Nc2cccc(-c3nncn3[C@@H](C)C(F)(F)F)n2)c(OC)n1 [Example 52, (S)-3-Methoxy-1-(2-methoxyethyl)-N-(6-(4-(1,1,1-trifluoropropan-2-yl)-4H-1,2,4-triazol-3-yl)pyridin-2-yl)-1H-pyrazole-4-carboxamide]
0.1 to 1 | ≤ 1 |  | COCCn1cc(C(=O)Nc2cccc(-c3nncn3[C@H](C)C(F)(F)F)n2)c(OC)n1 [Example 53, (R)-3-Methoxy-1-(2-methoxyethyl)-N-(6-(4-(1,1,1-trifluoropropan-2-yl)-4H-1,2,4-triazol-3-yl)pyridin-2-yl)-1H-pyrazole-4-carboxamide]
≤ 0.1 | ≤ 1 |  | COCCn1cc(C(=O)Nc2cccc(-c3nncn3C3CC3)n2)c(OC)n1 [Example 54, N-(6-(4-Cyclopropyl-4H-1,2,4-triazol-3-yl)pyridin-2-yl)-3-methoxy-1-(2-methoxyethyl)-1H-pyrazole-4-carboxamide]
≤ 0.1 | ≤ 1 |  | C=CCn1cc(C(=O)Nc2cccc(-c3nncn3C(C)C)n2)c(OC)n1 [Example 55, 1-Allyl-N-(6-(4-isopropyl-4H-1,2,4-triazol-3-yl)pyridin-2-yl)-3-methoxy-1H-pyrazole-4-carboxamide]
≤ 0.1 | ≤ 1 |  | C=CCn1cc(C(=O)Nc2cccc(-c3nncn3[C@@H](C)C(F)(F)F)n2)c(OC)n1 [Example 57, (S)-1-Allyl-3-methoxy-N-(6-(4-(1,1,1-trifluoropropan-2-yl)-4H-1,2,4-triazol-3-yl)pyridin-2-yl)-1H-pyrazole-4-carboxamide]
≤ 0.1 | ≤ 1 |  | CCCn1cc(C(=O)Nc2cccc(-c3nncn3C(C)C(F)(F)F)n2)c(OC)n1 (stereo not shown) [Example 59, 3-Methoxy-1-propyl-N-(6-(4-(1,1,1-trifluoropropan-2-yl)-4H-1,2,4-triazol-3-yl)pyridin-2-yl)-1H-pyrazole-4-carboxamide]
≤ 0.1 | ≤ 1 |  | COc1nn(-c2cc(C#N)ccn2)cc1C(=O)Nc1cccc(-c2nncn2C(C)C)n1 [Example 65, 1-(4-Cyanopyridin-2-yl)-N-(6-(4-isopropyl-4H-1,2,4-triazol-3-yl)pyridin-2-yl)-3-methoxy-1H-pyrazole-4-carboxamide]
≤ 0.1 | ≤ 1 |  | COc1nn(-c2cncc(C)c2)cc1C(=O)Nc1cccc(-c2nncn2C(C)C)n1 [Example 67, N-(6-(4-Isopropyl-4H-1,2,4-triazol-3-yl)pyridin-2-yl)-3-methoxy-1-(5-methylpyridin-3-yl)-1H-pyrazole-4-carboxamide]
≤ 0.1 | ≤ 1 |  | COc1nn(-c2cncc(C#N)c2)cc1C(=O)Nc1cccc(-c2nncn2C(C)C)n1 [Example 69, 1-(5-Cyanopyridin-3-yl)-N-(6-(4-isopropyl-4H-1,2,4-triazol-3-yl)pyridin-2-yl)-3-methoxy-1H-pyrazole-4-carboxamide]
